In patent publication US10189845B2, “4,6-substituted-pyrazolo[1,5-a]pyrazines as janus kinase inhibitors” (ARRAY BIOPHARMA INC., priority 2014, dated 2019):
Where a name gives a salt, the structure may show the parent alone. Read-outs that look alike come from different tables or passages of the source.

Key:
Type in all cases: biochemical
JAK2 = JAK2 (Homo sapiens (Human), UniProt O60674); assay: JAK2 Inhibition Assay (Example C, Omnia kinase fluorescence peptide substrate assay); conditions: JAK2 Enzyme IC50 1 mM ATP, averaged IC50 ranges
Chain of JAK2 (O60674 whole entry): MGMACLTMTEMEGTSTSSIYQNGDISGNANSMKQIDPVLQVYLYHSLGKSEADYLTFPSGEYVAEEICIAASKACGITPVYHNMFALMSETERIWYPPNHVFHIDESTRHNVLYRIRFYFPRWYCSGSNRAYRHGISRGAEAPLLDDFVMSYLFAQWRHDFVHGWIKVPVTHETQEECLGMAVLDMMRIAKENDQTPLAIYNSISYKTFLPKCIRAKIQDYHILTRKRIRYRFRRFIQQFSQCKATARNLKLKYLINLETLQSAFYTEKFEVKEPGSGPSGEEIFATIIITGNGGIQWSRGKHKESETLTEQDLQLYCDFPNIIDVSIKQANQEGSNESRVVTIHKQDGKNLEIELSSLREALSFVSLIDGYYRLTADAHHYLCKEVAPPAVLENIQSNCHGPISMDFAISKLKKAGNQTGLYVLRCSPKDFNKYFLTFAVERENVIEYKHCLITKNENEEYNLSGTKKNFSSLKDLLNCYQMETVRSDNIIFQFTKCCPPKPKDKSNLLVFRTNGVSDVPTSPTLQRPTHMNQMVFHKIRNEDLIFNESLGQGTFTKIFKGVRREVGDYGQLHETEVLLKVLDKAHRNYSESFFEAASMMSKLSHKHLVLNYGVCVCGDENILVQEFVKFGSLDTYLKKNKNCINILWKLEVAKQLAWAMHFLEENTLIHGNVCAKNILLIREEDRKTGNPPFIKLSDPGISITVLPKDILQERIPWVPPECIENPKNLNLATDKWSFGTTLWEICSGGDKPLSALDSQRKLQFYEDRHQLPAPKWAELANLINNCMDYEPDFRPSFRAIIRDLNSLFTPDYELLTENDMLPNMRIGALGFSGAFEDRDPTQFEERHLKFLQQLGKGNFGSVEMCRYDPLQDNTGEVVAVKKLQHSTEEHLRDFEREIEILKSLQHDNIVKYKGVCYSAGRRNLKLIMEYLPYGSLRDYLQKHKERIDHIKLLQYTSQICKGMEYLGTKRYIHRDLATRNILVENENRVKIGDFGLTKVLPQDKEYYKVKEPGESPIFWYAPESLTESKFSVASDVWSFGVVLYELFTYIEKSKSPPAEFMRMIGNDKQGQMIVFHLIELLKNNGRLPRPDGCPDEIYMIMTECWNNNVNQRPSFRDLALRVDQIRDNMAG
Outline: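 Kinetic fluorescence read of Omnia Y7 peptide (10 μM) phosphorylation, ex 360/em 485 nm every 50 s over 45 min, by 4 nM JAK2 at 1 mM ATP. Buffer 25 mM HEPES pH 7.4, 10 mM MgCl2, 0.01% Triton X-100, 1 mM DTT; final DMSO 2%. Percent-of-control values fitted by 4-parameter logistic for IC50.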

JAK3 = JAK3 (Homo sapiens (Human), UniProt P52333); assay: JAK3 Inhibition Assay (Example D, Omnia kinase fluorescence peptide substrate assay)
Chain of JAK3 (P52333 whole entry): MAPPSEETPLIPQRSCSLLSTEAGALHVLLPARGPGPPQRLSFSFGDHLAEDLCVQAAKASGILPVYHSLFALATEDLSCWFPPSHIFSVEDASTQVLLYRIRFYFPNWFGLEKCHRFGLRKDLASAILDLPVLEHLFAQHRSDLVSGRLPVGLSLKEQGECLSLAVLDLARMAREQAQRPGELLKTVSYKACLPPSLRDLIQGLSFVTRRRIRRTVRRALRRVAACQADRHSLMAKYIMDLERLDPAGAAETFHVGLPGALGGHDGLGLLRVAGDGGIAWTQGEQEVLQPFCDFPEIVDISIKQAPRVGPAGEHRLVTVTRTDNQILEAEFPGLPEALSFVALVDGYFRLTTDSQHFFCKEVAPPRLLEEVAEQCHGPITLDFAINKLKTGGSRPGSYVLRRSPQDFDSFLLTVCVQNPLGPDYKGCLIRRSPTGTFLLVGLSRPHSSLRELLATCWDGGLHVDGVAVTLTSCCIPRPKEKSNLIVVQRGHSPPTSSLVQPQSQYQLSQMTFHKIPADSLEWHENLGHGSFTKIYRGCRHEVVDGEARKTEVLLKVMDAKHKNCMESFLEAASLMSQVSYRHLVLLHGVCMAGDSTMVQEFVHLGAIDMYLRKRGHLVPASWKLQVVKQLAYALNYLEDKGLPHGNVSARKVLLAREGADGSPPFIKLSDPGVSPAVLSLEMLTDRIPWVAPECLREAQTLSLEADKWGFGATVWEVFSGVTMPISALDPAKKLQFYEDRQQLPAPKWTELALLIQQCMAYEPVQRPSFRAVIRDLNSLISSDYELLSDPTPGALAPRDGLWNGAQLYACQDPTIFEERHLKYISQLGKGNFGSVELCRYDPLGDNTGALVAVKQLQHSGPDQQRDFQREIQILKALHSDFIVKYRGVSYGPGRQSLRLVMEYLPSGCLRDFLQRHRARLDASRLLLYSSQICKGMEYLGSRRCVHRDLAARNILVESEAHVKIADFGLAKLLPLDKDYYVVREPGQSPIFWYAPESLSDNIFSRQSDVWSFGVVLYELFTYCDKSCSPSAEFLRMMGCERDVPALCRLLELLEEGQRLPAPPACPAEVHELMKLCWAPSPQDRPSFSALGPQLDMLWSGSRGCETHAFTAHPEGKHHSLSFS
Outline: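 Omnia Sox-peptide kinetic read (ex 360 nm, em 485 nm, every 50 s over 45 min) tracked phosphorylation of 10 μM Y7 peptide by 2 nM recombinant JAK3 at 1 mM ATP. Buffer: 25 mM HEPES pH 7.4, 10 mM MgCl2, 0.01% Triton X-100, 1 mM DTT, with 2% DMSO final.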

JAK1 = JAK1 (Homo sapiens (Human), UniProt P23458); assay: JAK1 Inhibition Assay (Example B, Omnia kinase fluorescence peptide substrate assay)
Chain of JAK1 (P23458 whole entry): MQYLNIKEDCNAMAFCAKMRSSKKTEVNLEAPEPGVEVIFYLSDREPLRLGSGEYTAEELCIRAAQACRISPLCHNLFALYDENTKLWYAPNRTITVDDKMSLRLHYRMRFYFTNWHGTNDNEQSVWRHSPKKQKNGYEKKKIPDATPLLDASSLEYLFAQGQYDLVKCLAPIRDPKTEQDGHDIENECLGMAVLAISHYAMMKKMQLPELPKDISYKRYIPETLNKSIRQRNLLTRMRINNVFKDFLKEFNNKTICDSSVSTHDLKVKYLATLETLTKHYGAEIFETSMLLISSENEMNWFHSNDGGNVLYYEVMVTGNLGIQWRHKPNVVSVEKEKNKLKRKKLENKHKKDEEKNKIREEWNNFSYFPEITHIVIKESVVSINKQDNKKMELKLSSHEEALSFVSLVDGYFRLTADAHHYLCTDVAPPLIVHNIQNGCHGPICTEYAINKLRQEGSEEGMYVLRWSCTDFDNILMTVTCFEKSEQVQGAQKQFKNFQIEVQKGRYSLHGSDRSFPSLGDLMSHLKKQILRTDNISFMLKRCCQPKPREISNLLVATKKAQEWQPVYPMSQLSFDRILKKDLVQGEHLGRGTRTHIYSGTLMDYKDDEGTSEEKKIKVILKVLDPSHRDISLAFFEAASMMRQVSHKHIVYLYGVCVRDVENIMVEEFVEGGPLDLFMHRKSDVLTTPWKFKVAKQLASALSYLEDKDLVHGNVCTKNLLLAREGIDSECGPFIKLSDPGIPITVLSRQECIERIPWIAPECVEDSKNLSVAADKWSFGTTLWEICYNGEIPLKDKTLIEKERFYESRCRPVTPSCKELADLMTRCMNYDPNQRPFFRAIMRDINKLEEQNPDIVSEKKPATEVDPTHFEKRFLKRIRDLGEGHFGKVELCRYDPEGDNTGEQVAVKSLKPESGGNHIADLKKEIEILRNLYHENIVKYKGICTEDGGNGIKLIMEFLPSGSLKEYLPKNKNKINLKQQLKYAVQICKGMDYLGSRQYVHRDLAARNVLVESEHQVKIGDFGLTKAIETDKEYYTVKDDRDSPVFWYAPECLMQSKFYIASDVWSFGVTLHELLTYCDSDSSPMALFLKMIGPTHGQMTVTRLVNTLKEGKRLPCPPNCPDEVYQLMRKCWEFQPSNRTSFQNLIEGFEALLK
Outline: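 Kinetic fluorescence read (360 nm excitation, 485 nm emission, every 50 s over 45 min) of Omnia Y12 peptide (8 μM) phosphorylation by 12.5 nM human JAK1 at 1 mM ATP. Buffer: HEPES pH 7.4, MgCl2, Triton X-100, DTT; 2% DMSO. IC50 = concentration giving 50 POC on logistic curve.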

Human Tyk2 kinase domain = Human Tyk2 kinase domain (Homo sapiens (Human), UniProt P29597); assay: Tyk2 Inhibition Assay (Example A, Omnia kinase fluorescence peptide substrate assay); conditions: TYK2 Enzyme IC50 1 mM ATP, averaged IC50 ranges
Chain of Human Tyk2 kinase domain (P29597 886-1187): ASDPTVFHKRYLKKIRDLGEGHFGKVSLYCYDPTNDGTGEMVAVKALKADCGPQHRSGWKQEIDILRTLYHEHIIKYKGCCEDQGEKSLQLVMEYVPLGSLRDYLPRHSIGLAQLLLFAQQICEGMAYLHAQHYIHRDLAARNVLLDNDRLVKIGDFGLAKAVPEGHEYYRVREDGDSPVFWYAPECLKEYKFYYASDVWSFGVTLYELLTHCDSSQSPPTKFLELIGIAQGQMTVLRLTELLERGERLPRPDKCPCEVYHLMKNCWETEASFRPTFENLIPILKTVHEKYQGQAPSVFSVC
Outline: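 IC50 values come from a 4-parameter logistic fit of percent-of-control data, with compounds at 2% final DMSO. Reactions held 1 nM His-tag-cleaved Tyk2 (aa 886–1187), 8 μM Omnia Y12 peptide and 1 mM ATP in pH 7.4 HEPES buffer with 10 mM MgCl2, Triton X-100 and DTT. Sox fluorescence (360/485 nm) was monitored kinetically over 45 min.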

[1] = JAK1 Enzyme IC50 1 mM ATP, 1 mM ATP, averaged IC50 ranges

Row | SMILES | IC50 (JAK2) [nM] | IC50 (JAK3) [nM] | IC50 (JAK1) [nM] | IC50 (Human Tyk2 kinase domain) [nM] | IC50 (JAK1; [1]) [nM]
1 | CC[C@@H](C)n1cc(-c2nc(-c3cnn(C4CCS(=O)(=O)CC4)c3)cn3nccc23)cn1 [Example 21, (R)-4-(4-(4-(1-(sec-butyl)-1H-pyrazol-4-yl)pyrazolo[1,5-a]pyrazin-6-yl)-1H-pyrazol-1-yl)tetrahydro-2H-thiopyran 1,1-dioxide] | 10 to 100 | 1000 to 10000 | 1000 to 10000 | 100 to 1000 | 
2 | CCC(CC)n1cc(-c2nc(-c3cnn(CC(C)(O)CO)c3)cn3nccc23)cn1 (stereo not drawn) [Example 60, 2-methyl-3-(4-(4-(1-(pentan-3-yl)-1H-pyrazol-4-yl)pyrazolo[1,5-a]pyrazin-6-yl)-1H-pyrazol-1-yl)propane-1,2-diol] | 10 to 100 | 1000 to 10000 | 1000 to 10000 | 10 to 100 | 
3 | C[C@@H]1CC[C@@H]1n1cc(-c2nc(-c3cnn(C[C@@H](O)CO)c3)cn3nccc23)cn1 [Example 217, (R)-3-(4-(4-(1-(cis-2-methylcyclobutyl)-1H-pyrazol-4-yl)pyrazolo[1,5-a]pyrazin-6-yl)-1H-pyrazol-1-yl)propane-1,2-diol] | 100 to 1000 | 1000 to 10000 |  | 100 to 1000 | 1000 to 10000
4 | CCC(CC)n1cc(-c2nc(-c3cnn(C4CCNCC4)c3)cn3nccc23)cn1 [Example 25, 4-(1-(pentan-3-yl)-1H-pyrazol-4-yl)-6-(1-(piperidin-4-yl)-1H-pyrazol-4-yl)pyrazolo[1,5a]pyrazine hydrochloride] | 10 to 100 | 1000 to 10000 | 100 to 1000 | 10 to 100 | 
5 | CCC(CC)n1cc(-c2nc(-c3cnn([C@@H]4CCNC[C@H]4O)c3)cn3nccc23)cn1 [Example 188, (3R,4R)-4-(4-(4-(1-(pentan-3-yl)-1H-pyrazol-4-yl)pyrazolo[1,5-a]pyrazin-6-yl)-1H-pyrazol-1-yl)piperidin-3-ol] | 10 to 100 | 1000 to 10000 | 1000 to 10000 | 10 to 100 | 
6 | CCC(CC)n1cc(-c2nc(-c3cnn(CCO)c3)cn3nccc23)cn1 [Example 20, 2-(4-(4-(l-(pentan-3-yl)-1H-pyrazol-4-yl)pyrazolo[1,5-a]pyrazin-6-yl)-1H-pyrazol-1-yl)ethanol] | 10 to 100 | 1000 to 10000 | 10 to 100 | 10 to 100 | 
7 | CCC(CC)n1cc(-c2nc(-c3cnn(C[C@H](O)CO)c3)cn3nccc23)cn1 [Example 55, (S)-3-(4-(4-(1-(pentan-3-yl)-1H-pyrazol-4-yl)pyrazolor[1,5-a]pyrazin-6-yl)-1H-pyrazol-1-yl)propane-1,2-diol] | 100 to 1000 | 1000 to 10000 |  | 10 to 100 | 100 to 1000
8 | CCC(CC)n1cc(-c2nc(-c3cnn([C@@H](C)[C@H](C)O)c3)cn3nccc23)cn1 (single isomer, unassigned) [Example 155] | 10 to 100 | 1000 to 10000 |  | 10 to 100 | 100 to 1000
9 | CCC(c1ccccc1)n1cc(-c2nc(-c3cnn(C[C@@H](O)CO)c3)cn3nccc23)cn1 (stereo partly drawn) [Example 66, (2R)-3-(4-(4-(1-(1-phenylpropyl)-1H-pyrazol-4-yl)pyrazolo[1,5-a]pyrazin-6-yl)-1H-pyrazol-1-yl)propane-1,2-diol] | 10 to 100 | 100 to 1000 |  | 10 to 100 | 10 to 100
10 | CCC(CC)n1cc(-c2nc(-c3cnn(C[C@H](O)[C@H](C)O)c3)cn3nccc23)cn1 [Example 65, (2S,3S)-1-(4-(4-(1-(pentan-3-yl)-1H-pyrazol-4-yl)pyrazolo[1,5-a]pyrazin-6-yl)-1H-pyrazol-1-yl)butane-2,3-diol] | 10 to 100 | 1000 to 10000 |  | 10 to 100 | 100 to 1000
11 | CCC[C@@H](C)n1cc(-c2nc(-c3cnn(C[C@@H](O)CO)c3)cn3nccc23)cn1 [Example 73, (R)-3-(4-(4-(1-((R)-pentan-2-yl)-1H-pyrazol-4-yl)pyrazolo[1,5-a]pyrazin-6-yl)-1H-pyrazol-1-yl)propane-1,2-diol] | 10 to 100 | 1000 to 10000 |  | 10 to 100 | 1000 to 10000
12 | CCC(CC)n1cc(-c2nc(-c3cnn(CCN[C@@H]4CCN(C)C4=O)c3)cn3nccc23)cn1 [Example 143, (R)-1-methyl-3-((2-(4-(4-(1-(pentan-3-yl)-1H-pyrazol-4-yl)pyrazolo[1,5-a]pyrazin-6-yl)-1H-pyrazol-1-yl)ethyl)amino)pyrrolidin-2-one] | 10 to 100 | 1000 to 10000 | 1000 to 10000 | 100 to 1000 | 
13 | CC[C@H](C)n1cc(-c2nc(-c3cnn(C(CO)CO)c3)cn3nccc23)cn1 [Example 84, (S)-2-(4-(4-(1-(sec-butyl)-1H-pyrazol-4-yl)pyrazolo[1,5-a]pyrazin-6-yl)-1H-pyrazol-1-yl)propane-1,3-diol] | 10 to 100 | 1000 to 10000 | 10 to 100 | 10 to 100 | 
14 | CCC(CC)n1cc(-c2nc(-c3cnn(C[C@@H](C)O)c3)cn3nccc23)cn1 [Example 109, (R)-1-(4-(4-(1-(pentan-3-yl)-1H-pyrazol-4-yl)pyrazolo[1,5-a]pyrazin-6-yl)-1H-pyrazol-1-yl)propan-2-ol] | 1000 to 10000 | 1000 to 10000 | 1000 to 10000 | 100 to 1000 | 
15 | CCC(CC)n1cc(-c2nc(-c3cnn(C[C@@](C)(O)CO)c3)cn3nccc23)cn1 (single isomer, unassigned) [Example 202] | 10 to 100 | 1000 to 10000 | 100 to 1000 | 10 to 100 | 
16 | CC[C@H](C)n1cc(-c2nc(-c3cnn(C[C@@H](O)CO)c3)cn3nccc23)cn1 [Example 68, (R)-3-(4-(4-(1-((S)-sec-butyl)-1H-pyrazol-4-yl)pyrazolo[1,5-a]pyrazin-6-yl)-1H-pyrazol-1-yl)propane-1,2-diol] | 10 to 100 | 1000 to 10000 |  | 10 to 100 | 100 to 1000
17 | CCC(CC)n1cc(-c2nc(-c3cnn(C[C@](C)(O)CO)c3)cn3nccc23)cn1 (single isomer, unassigned) [Example 203] | 10 to 100 | 1000 to 10000 | 100 to 1000 | 10 to 100 | 
18 | CC(C)C[C@H](C)n1cc(-c2nc(-c3cnn(C[C@H](O)CO)c3)cn3nccc23)cn1 [Example 76, (S)-3-(4-(4-(1-((S)-4-methylpentan-2-yl)-1H-pyrazol-4-yl)pyrazolo[1,5-a]pyrazin-6-yl)-1H-pyrazol-1-yl)propane-1,2-diol] | 100 to 1000 | 1000 to 10000 |  | 100 to 1000 | 1000 to 10000
19 | CCC(CC)n1cc(-c2nc(-c3cnn(CCN[C@H]4CCN(C)C4=O)c3)cn3nccc23)cn1 [Example 142, (S)-1-methyl-3-((2-(4-(4-(1-(pentan-3-yl)-1H-pyrazol-4-yl)pyrazolo[1,5-a]pyrazin-6-yl)-1H-pyrazol-1-yl)ethyl)amino)pyrrolidin-2-one] | 10 to 100 | 1000 to 10000 | 1000 to 10000 | 10 to 100 | 
20 | CC[C@H]1CCC[C@H]1n1cc(-c2nc(-c3cnn(C[C@@H](O)CO)c3)cn3nccc23)cn1 (single isomer, unassigned) [Example 208] | 10 to 100 | 1000 to 10000 |  | 100 to 1000 | 1000 to 10000
21 | CCC(CC)n1cc(-c2nc(-c3cnn(C[C@H](C)O)c3)cn3nccc23)cn1 [Example 110, (S)-1-(4-(4-(1-(pentan-3-yl)-1H-pyrazol-4-yl)pyrazolo[1,5-a]pyrazin-6-yl)-1H-pyrazol-1-yl)propan-2-ol] | 10 to 100 | 1000 to 10000 | 100 to 1000 | 10 to 100 | 
22 | CCC(CC)n1cc(-c2nc(-c3cnn(C4CN(C(=O)[C@H]5C[C@H](O)C5)C4)c3)cn3nccc23)cn1 [Example 179, (trans-3-hydroxycyclobutyl)(3-(4-(4-(1-(pentan-3-yl)-1H-pyrazol-4-yl)pyrazolo[1,5-a]pyrazin-6-yl)-1H-pyrazol-1-yl)azetidin-1-yl)methanone] | 10 to 100 | 1000 to 10000 | 1000 to 10000 | 10 to 100 | 
23 | CCC(C)n1cc(-c2nc(-c3cnn(C[C@@H](O)CO)c3)cn3nccc23)cn1 (stereo partly drawn) [Example 67, (2R)-3-(4-(4-(1-(sec-butyl)-1H-pyrazol-4-yl)pyrazolo[1,5-a]pyrazin-6-yl)-1H-pyrazol-1-yl)propane-1,2-diol] | 10 to 100 | 100 to 1000 |  | 100 to 1000 | 100 to 1000
24 | CCC(C(=O)O)n1cc(-c2nc(-c3cnn(C)c3)cn3nccc23)cn1 (stereo not drawn) [Example 44, 2-(4-(6-(1-methyl-1H-pyrazol-4-yl)pyrazolo[1,5-a]pyrazin-4-yl)-1H-pyrazol-1-yl)butanoic acid] | 1000 to 10000 | 1000 to 10000 |  | 10 to 100 | 1000 to 10000
